The values that follow are results of earlier work, collected in patent publication US20070060557A1, “Superoxide dismutase mimics for the treatment of optic nerve and retinal damage” (priority 2003, published 2007).

For data set [1], the system named is light-induced retinal damage in albino rats. The note with it: albino rats (Wang et al. 1995).
Data set [2] relates to rat ocular ischemia-reperfusion model. The note with it: intravitreal injections (Rios et al. 1999).

Molecules are shown by their SMILES.

In the case of `CC1(C)CC(O)CC(C)(C)N1[O]` [4-hydroxy-2,2,6,6-tetramethylpiperidine-1-oxyl], in data set [1], the light-induced retinal damage result is reported as “inhibited light-induced retinal damage”. As for `CNC(=S)NC` [dimethylthiourea], the functional protection in data set [2] is recorded as 40%.
